Laboratory results published in article PMC12104055 (Frontiers in Pharmacology, 2025).
Where two headings read alike, the source gives them in different places. One block for each compound: values may come before it.

What was measured:
[1] = Drug interaction study: pharmacokinetics of firmonertinib and AST-5902 in rats with or without nirmatrelvir and ritonavir (paxlovid); assay type: in vivo, Sprague-Dawley (SD) rats; conditions: for AUC(0-inf) / AUC(0-t) / Cmax / Tmax / half-life / CL/F / MRT last / MRT inf / Vd/F: male, Sprague-Dawley, rat, plasma, po, 7.2 mg/kg, rat plasma; for CL/F: read-out: CLz/F (converted); for MRT last: read-out: MRT(0-t); for MRT inf: read-out: MRT(0-∞); for Vd/F: read-out: Vz/F; for Difference in main pharmacokinetic data between single-dose and long-term nirmatrelvir and ritonavir groups: P > 0.05
Protocol: The experimental animals for pharmacokinetics were eighteen male Sprague-Dawley (SD) rats (6–8 weeks old), weighing 180–220 g, purchased from Beijing Vital River Laboratory Animal Technology Co., Ltd. All animal-related experimental operations and care were performed in accordance with the Guide for the Care and Use of Laboratory Animals and were approved by the Animal Research Ethics Committee of Wenzhou Medical University (wydw2022-0184). All SD rats were kept in an SPF animal laboratory and were provided with adequate feed and water until all rats reached the required body weight for the experiment. […] Eighteen SD rats were randomly and equally divided into three groups of six rats each. Group C rats (long-term administration group) were given 55 mg/kg nirmatrelvir and 20 mg/kg ritonavir by gavage every 12 h for 5 days. Groups B (single dose administration group) and A (control group) were also given the same amount of 0.5% CMC-Na every 12 h for 5 days. Prior to the pharmacokinetic experiments, all rats were fasted for 12 h, but drinking water was not prohibited. On the day of the experiment, 55 mg/kg nirmatrelvir and 20 mg/kg ritonavir were given once by gavage to rats in group B and group C. The same dose of 0.5% CMC-Na was given to group A rats. […] Blood was collected using heparin lithium-anticoagulant tubes and then centrifuged for 10 min at 13,000 rpm at 4°C. Subsequently, the upper plasma fraction was transferred to a clean centrifuge tube and placed in a −80°C refrigerator for storage until detection.
The pharmacokinetic parameters of three groups were analyzed by single factor analysis of variance using SPSS 28.0 software. A p value of less than 0.05 were considered significant difference between the two groups.

[2] = Stability in rat plasma under different storage conditions; assay type: in vitro ADME; conditions: for Stability RE (%), 4°C / Stability RE (%), Room temperature / Stability RE (%), Three freeze-thaw / Stability RE (%), −80°C: rat plasma; for Stability RE (%), 4°C: 4°C (24 h); for Stability RE (%), Room temperature: room temperature (4 h); for Stability RE (%), −80°C: −80°C long-term storage; for Stability in rat plasma: short-term and long-term storage conditions
Protocol: The stability of the method was assessed through the determination of low, medium and high concentration rat plasma quality control samples under various storage conditions. […] The stability of the samples was determined by the precision of measurement results, and the samples were considered stable when the CV% and RE% were both below 15%.

[3] = set-up: method as in Heng et al., 2021; conditions: itraconazole (CYP3A4 inhibitor); clinical study; ref Heng et al., 2021; cited from earlier work
CYP3A4 = tested on: CYP3A4; set-up: method as in Liu et al., 2020; conditions: ref Liu et al., 2020, cited from earlier work
[4] = set-up: method as in Zhu et al., 2021; conditions: therapeutic doses of rifampicin (strong CYP3A4 inducer); clinical study; ref Zhu et al., 2021; cited from earlier work
[5] = set-up: method as in Boosman et al., 2022; conditions: ref Boosman et al., 2022; cited from earlier work
[6] = Group A control: single 7.2 mg/kg firmonertinib by gavage alone
[7] = Group B: single dose 55 mg/kg nirmatrelvir and 20 mg/kg ritonavir, then 7.2 mg/kg firmonertinib by gavage
[8] = Group C: 5 days twice a day 55 mg/kg nirmatrelvir and 20 mg/kg ritonavir, then 7.2 mg/kg firmonertinib by gavage
[9] = rats, long-term nirmatrelvir and ritonavir vs firmonertinib monotherapy group
[10] = rats, single dose nirmatrelvir and ritonavir vs firmonertinib monotherapy group
[11] = rats, long-term (5 days) nirmatrelvir and ritonavir vs firmonertinib monotherapy group

Stability in rat plasma [2]: remain stable
Compound: C=CC(=O)Nc1cc(Nc2nccc(-c3cn(C)c4ccccc34)n2)c(OCC(F)(F)F)nc1N(C)CCNC [AST-5902]
AUC(0-inf) [1, 6]: 405 ± 60.4 ng·h/mL
AUC(0-t) [1, 6]: 387 ± 58.2 ng·h/mL
Cmax [1, 6]: 39 ± 2.46 ng/mL
Tmax [1, 6]: 5.33 ± 1.03 h
half-life [1, 6]: 296 ± 58.8 min
CL/F [1, 6]: 302 mL/min/kg
MRT last [1, 6]: 8.37 ± 0.39 h
MRT inf [1, 6]: 9.35 ± 0.4 h
Vd/F [1, 6]: 129 ± 35.5 L/kg
AUC(0-inf) [1, 7]: 185 ± 147 ng·h/mL
AUC(0-t) [1, 7]: 122 ± 15 ng·h/mL
Cmax [1, 7]: 9.79 ± 1.7 ng/mL
Tmax [1, 7]: 8.33 ± 2.94 h
half-life [1, 7]: 368 ± 259 min
CL/F [1, 7]: 851 mL/min/kg
MRT last [1, 7]: 8.94 ± 0.62 h
MRT inf [1, 7]: 8.73 ± 2.41 h
Vd/F [1, 7]: 362 ± 62.9 L/kg
AUC(0-inf) [1, 8]: 125 ± 13.2 ng·h/mL
AUC(0-t) [1, 8]: 122 ± 12.8 ng·h/mL
Cmax [1, 8]: 10.2 ± 1.42 ng/mL
Tmax [1, 8]: 8.67 ± 1.63 h
half-life [1, 8]: 219 ± 34.8 min
CL/F [1, 8]: 969 mL/min/kg
MRT last [1, 8]: 9.22 ± 0.19 h
MRT inf [1, 8]: 9.7 ± 0.33 h
Vd/F [1, 8]: 306 ± 56.7 L/kg
Difference in main pharmacokinetic data between single-dose and long-term nirmatrelvir and ritonavir groups ([1]; rats): no significant differences
AUC(0-∞) of AST-5902 decreased by [1, 9]: 70%
CLz/F of AST-5902 increased by [1, 9]: 3.2 times
Cmax of AST-5902 decreased by [1, 9]: 74%
Tmax of AST-5902 increased by [1, 9]: 1.62 times
Vz/F of AST-5902 increased by [1, 9]: 2.36 times
AUC(0-∞) of AST-5902 decreased by [1, 10]: 55%
CLz/F of AST-5902 increased by [1, 10]: 2.81 times
Cmax of AST-5902 decreased by [1, 10]: 75%
Tmax of AST-5902 increased by [1, 10]: 1.56 times
Vz/F of AST-5902 increased by [1, 10]: 2.79 times
AUC(0-t) of AST-5902 decreased by ([1]; rats, single-dose and long-term nirmatrelvir and ritonavir groups vs firmonertinib monotherapy group): 69%
Stability RE (%), 4°C ([2]; AST-5902 table, 0.2 ng/mL): −1.94%
Stability RE (%), Room temperature ([2]; AST-5902 table, 0.2 ng/mL): 4.37%
Stability RE (%), Three freeze-thaw ([2]; AST-5902 table, 0.2 ng/mL): 1.93%
Stability RE (%), −80°C ([2]; AST-5902 table, 0.2 ng/mL): 0.97%
Stability RE (%), 4°C ([2]; AST-5902 table, 5 ng/mL): −1.36%
Stability RE (%), Room temperature ([2]; AST-5902 table, 5 ng/mL): 1.25%
Stability RE (%), Three freeze-thaw ([2]; AST-5902 table, 5 ng/mL): 5.50%
Stability RE (%), −80°C ([2]; AST-5902 table, 5 ng/mL): 3.06%
Stability RE (%), 4°C ([2]; AST-5902 table, 40 ng/mL): 0.00%
Stability RE (%), Room temperature ([2]; AST-5902 table, 40 ng/mL): 0.31%
Stability RE (%), Three freeze-thaw ([2]; AST-5902 table, 40 ng/mL): −0.91%
Stability RE (%), −80°C ([2]; AST-5902 table, 40 ng/mL): −0.53%

Stability RE (%), 4°C ([2]; 0.3 ng/mL): −4.98%
Stability RE (%), Room temperature ([2]; 0.3 ng/mL): 7.47%
Stability RE (%), 4°C ([2]; 40 ng/mL): 2.22%
Stability RE (%), Room temperature ([2]; 40 ng/mL): −0.57%
Stability RE (%), 4°C ([2]; 400 ng/mL): −2.90%
Stability RE (%), Room temperature ([2]; 400 ng/mL): 2.63%
Stability in rat plasma [2]: remain stable
Compound: C=CC(=O)Nc1cc(Nc2nccc(-c3cn(C)c4ccccc34)n2)c(OCC(F)(F)F)nc1N(C)CCN(C)C [firmonertinib]
Exposure of firmonertinib on co-administration with itraconazole [3]: significantly increases
AUC(0-inf) [1, 6]: 367 ± 89.7 ng·h/mL
AUC(0-t) [1, 6]: 270 ± 28.4 ng·h/mL
Cmax [1, 6]: 13.5 ± 4.43 ng/mL
Tmax [1, 6]: 6.33 ± 1.97 h
half-life [1, 6]: 2380 ± 2140 min
CL/F [1, 6]: 341 mL/min/kg
MRT last [1, 6]: 24.5 ± 2.43 h
MRT inf [1, 6]: 61.8 ± 44.7 h
Vd/F [1, 6]: 1010 L/kg
AUC(0-inf) [1, 7]: 486 ± 103 ng·h/mL
AUC(0-t) [1, 7]: 456 ± 125 ng·h/mL
Cmax [1, 7]: 27 ± 9.75 ng/mL
Tmax [1, 7]: 6 ± 2.19 h
half-life [1, 7]: 973 ± 406 min
CL/F [1, 7]: 256 mL/min/kg
MRT last [1, 7]: 19.2 ± 2.34 h
MRT inf [1, 7]: 28.4 ± 6.88 h
Vd/F [1, 7]: 374 ± 209 L/kg
AUC(0-inf) [1, 8]: 458 ± 46 ng·h/mL
AUC(0-t) [1, 8]: 421 ± 21.4 ng·h/mL
Cmax [1, 8]: 27.9 ± 4.22 ng/mL
Tmax [1, 8]: 5 ± 1.1 h
half-life [1, 8]: 1070 ± 355 min
CL/F [1, 8]: 264 mL/min/kg
MRT last [1, 8]: 19.6 ± 2.48 h
MRT inf [1, 8]: 30.3 ± 5.96 h
Vd/F [1, 8]: 400 ± 95.8 L/kg
Difference in main pharmacokinetic data between single-dose and long-term nirmatrelvir and ritonavir groups ([1]; rats): no significant differences
AUC(0-t) of firmonertinib increased by [1, 11]: 1.55 times
CLz/F of firmonertinib decreased by [1, 11]: 23%
Cmax of firmonertinib increased by [1, 11]: 2.05 times
MRT(0-t) of firmonertinib decreased by [1, 11]: 20%
MRT(0-∞) of firmonertinib decreased by [1, 11]: 51%
Vz/F of firmonertinib decreased by [1, 11]: 61%
t1/2 of firmonertinib decreased by [1, 11]: 55%
AUC(0-t) of firmonertinib increased by [1, 10]: 1.68 times
CLz/F of firmonertinib decreased by [1, 10]: 26%
Cmax of firmonertinib increased by [1, 10]: 1.99 times
MRT(0-t) of firmonertinib decreased by [1, 10]: 22%
MRT(0-∞) of firmonertinib decreased by [1, 10]: 55%
Vz/F of firmonertinib decreased by [1, 10]: 64%
t1/2 of firmonertinib decreased by [1, 10]: 60%
Main metabolizing enzyme (CYP3A4; in vitro experiments, to N-demethylated metabolite AST-5902): metabolized mainly by CYP3A4
Relation to CYP3A4 (CYP3A4; previous studies): both a substrate and an inducer of CYP3A4
Exposure of firmonertinib on co-administration with rifampicin [4]: significantly reduced

Compound: C#Cc1cccc(Nc2ncnc3cc(OCCOC)c(OCCOC)cc23)c1 [erlotinib]
Pharmacokinetic exposure of 75 mg erlotinib orally with ritonavir versus 150 mg erlotinib orally [5]: comparable
